Assay results taken from patent publication US6939946B2, “Ring modified cyclic peptide analogs” (Eli Lilly and Company, priority 1998, dated 2005).
Counter-ions that a name gives are not always drawn. Bridge positions count the residues as written; N and C are the ends. Square brackets hold non-standard residues; d marks the D form. Peptide text beside a SMILES is read from it. * marks the point of attachment. ξ: configuration not given here. pTerphenylCO(4''-OnC5H11) = CCCCCOc1ccc(-c2ccc(-c3ccc(C(=O)*)cc3)cc2)cc1; Pro(3S-OH,4S-Me) = C[C@H]1CN[C@H](C(=O)O)[C@H]1O; hTyr(3R-OH) = N[C@H](C(=O)O)[C@H](O)Cc1ccc(O)cc1; Hyp = O=C(O)[C@@H]1C[C@@H](O)CN1; Thr(3ξ) = CC(O)[C@H](N)C(=O)O; dOrn = NCCC[C@@H](N)C(=O)O; Orn = NCCC[C@H](N)C(=O)O; Dab = NCC[C@H](N)C(=O)O; ξDap = NCC(N)C(=O)O

How the values were obtained:
Details in all cases: in vitro
C. albicans = test system: C. albicans
C. parapsilosis = test system: C. parapsilosis
A. fumigatus = test system: A. fumigatus
Histoplasma capsulatum = test system: Histoplasma capsulatum

Row | Structure (SMILES) | Minimal Inhibitory Concentration MIC C. albicans (C. albicans) [µg/mL] | Minimal Inhibitory Concentration MIC C. parapsilosis (C. parapsilosis) [µg/mL] | Minimal Inhibitory Concentration MIC A. fumigatus (A. fumigatus) [µg/mL] | Minimal Inhibitory Concentration MIC Histoplasma capsulatum (Histoplasma capsulatum) [µg/mL]
1 | CCCCCOc1ccc(-c2ccc(-c3ccc(C(=O)N[C@H]4CCN(C)NC(=O)[C@@H]5[C@@H](O)[C@@H](C)CN5C(=O)[C@H](C(C)O)NC(=O)[C@H]([C@H](O)Cc5ccc(O)cc5)NC(=O)[C@@H]5C[C@@H](O)CN5C(=O)[C@H](C(C)O)NC4=O)cc3)cc2)cc1 (single isomer, unassigned) [E2-11(a) HCl salt] | 0.001 | 0.156 | 0.078 | 0.02
2 | CCCCCOc1ccc(-c2ccc(-c3ccc(C(=O)N[C@H]4CCN(C)NC(=O)[C@@H]5[C@@H](O)[C@@H](C)CN5C(=O)[C@H](C(C)O)NC(=O)[C@H]([C@H](O)Cc5ccc(O)cc5)NC(=O)[C@@H]5C[C@@H](O)CN5C(=O)[C@H](C(C)O)NC4=O)cc3)cc2)cc1 (single isomer, unassigned) [E2-11(a) TFA salt] | 0.005 | 0.156 | 0.039 | 0.78
3 | CCCCCOc1ccc(-c2ccc(-c3ccc(C(=O)N[C@H]4CCN(C(=O)C(N)CN)NC(=O)[C@@H]5[C@@H](O)[C@@H](C)CN5C(=O)[C@H](C(C)O)NC(=O)[C@H]([C@H](O)Cc5ccc(O)cc5)NC(=O)[C@@H]5C[C@@H](O)CN5C(=O)[C@H](C(C)O)NC4=O)cc3)cc2)cc1 (single isomer, unassigned) [E2-13 (isomer 1)] | 0.078 | 2.5 | 0.625 | 1.25
4 | CCCCCOc1ccc(-c2ccc(-c3ccc(C(=O)N[C@H]4CCN(C(=O)C(N)CN)NC(=O)[C@@H]5[C@@H](O)[C@@H](C)CN5C(=O)[C@H](C(C)O)NC(=O)[C@H]([C@H](O)Cc5ccc(O)cc5)NC(=O)[C@@H]5C[C@@H](O)CN5C(=O)[C@H](C(C)O)NC4=O)cc3)cc2)cc1 (single isomer, unassigned) [E2-13 (isomer 2)] | 0.156 | 20 | 1.25 | 10
5 | CCCCCOc1ccc(-c2ccc(-c3ccc(C(=O)N[C@H]4CCCNC(=O)[C@@H]5[C@@H](O)[C@@H](C)CN5C(=O)[C@H](C(C)O)NC(=O)[C@H]([C@H](O)Cc5ccc(O)cc5)NC(=O)[C@@H]5C[C@@H](O)CN5C(=O)[C@H](C(C)O)NC4=O)cc3)cc2)cc1 (stereo partly drawn) [Compound E1-3] ({pTerphenylCO(4''-OnC5H11)}-[Orn][Thr(3ξ)][Hyp][hTyr(3R-OH)][Thr(3ξ)][Pro(3S-OH,4S-Me)]; lactam 1-C) | 0.005 | 0.156 | 0.078 | 0.156
6 | CCCCCOc1ccc(-c2ccc(-c3ccc(C(=O)N[C@@H]4CCCNC(=O)[C@@H]5[C@@H](O)[C@@H](C)CN5C(=O)[C@H](C(C)O)NC(=O)[C@H]([C@H](O)Cc5ccc(O)cc5)NC(=O)[C@@H]5C[C@@H](O)CN5C(=O)[C@H](C(C)O)NC4=O)cc3)cc2)cc1 (stereo partly drawn) [Compound E1-4] ({pTerphenylCO(4''-OnC5H11)}-[dOrn][Thr(3ξ)][Hyp][hTyr(3R-OH)][Thr(3ξ)][Pro(3S-OH,4S-Me)]; lactam 1-C) | 1.25 | >20 | 20.0 | 5.0
7 | CCCCCOc1ccc(-c2ccc(-c3ccc(C(=O)N[C@H]4CCCCNC(=O)[C@@H]5[C@@H](O)[C@@H](C)CN5C(=O)[C@H](C(C)O)NC(=O)[C@H]([C@H](O)Cc5ccc(O)cc5)NC(=O)[C@@H]5C[C@@H](O)CN5C(=O)[C@H](C(C)O)NC4=O)cc3)cc2)cc1 (stereo partly drawn) [Compound E1-5] ({pTerphenylCO(4''-OnC5H11)}-K[Thr(3ξ)][Hyp][hTyr(3R-OH)][Thr(3ξ)][Pro(3S-OH,4S-Me)]; lactam 1-C) | 0.02 | >20 | 2.5 | 0.156
8 | CCCCCOc1ccc(-c2ccc(-c3ccc(C(=O)N[C@H]4CCNC(=O)[C@@H]5[C@@H](O)[C@@H](C)CN5C(=O)[C@H](C(C)O)NC(=O)[C@H]([C@H](O)Cc5ccc(O)cc5)NC(=O)[C@@H]5C[C@@H](O)CN5C(=O)[C@H](C(C)O)NC4=O)cc3)cc2)cc1 (stereo partly drawn) [Compound E1-6] ({pTerphenylCO(4''-OnC5H11)}-[Dab][Thr(3ξ)][Hyp][hTyr(3R-OH)][Thr(3ξ)][Pro(3S-OH,4S-Me)]; lactam 1-C) | 0.039 | >20 | 20 | 0.078
9 | CCCCCOc1ccc(-c2ccc(-c3ccc(C(=O)NC4CNC(=O)[C@@H]5[C@@H](O)[C@@H](C)CN5C(=O)[C@H](C(C)O)NC(=O)[C@H]([C@H](O)Cc5ccc(O)cc5)NC(=O)[C@@H]5C[C@@H](O)CN5C(=O)[C@H](C(C)O)NC4=O)cc3)cc2)cc1 (stereo partly drawn) [Compound E1-7] ({pTerphenylCO(4''-OnC5H11)}-[ξDap][Thr(3ξ)][Hyp][hTyr(3R-OH)][Thr(3ξ)][Pro(3S-OH,4S-Me)]; lactam 1-C) | 0.312 | >20 | 0.625 | 0.625
10 | CCCCCOc1ccc(-c2ccc(-c3ccc(C(=O)N[C@H]4CCN(C(=O)CN)NC(=O)[C@@H]5[C@@H](O)[C@@H](C)CN5C(=O)[C@H](C(C)O)NC(=O)[C@H]([C@H](O)Cc5ccc(O)cc5)NC(=O)[C@@H]5C[C@@H](O)CN5C(=O)[C@H](C(C)O)NC4=O)cc3)cc2)cc1 (some centres unmarked) [Compound E2-12] | 0.01 | 0.312 | 0.156 | 0.039
11 | CCCCCOc1ccc(-c2ccc(-c3ccc(C(=O)NC4CS(=O)(=O)CCNC(=O)[C@@H]5[C@H](O)[C@@H](C)CN5C(=O)[C@H]([C@@H](C)O)NC(=O)[C@H]([C@H](O)Cc5ccc(O)cc5)NC(=O)[C@@H]5C[C@@H](O)CN5C(=O)[C@H]([C@@H](C)O)NC4=O)cc3)cc2)cc1 (some centres unmarked) [Compound E3-6] | 10 | >20 | 20 | 10
12 | CCCCCOc1ccc(-c2ccc(-c3ccc(C(=O)N[C@@H]4CS(=O)(=O)CCNC(=O)[C@@H]5[C@H](O)[C@@H](C)CN5C(=O)[C@H]([C@@H](C)O)NC(=O)[C@H]([C@H](O)Cc5ccc(O)cc5)NC(=O)[C@@H]5C[C@@H](O)CN5C(=O)[C@H]([C@@H](C)O)NC4=O)cc3)cc2)cc1 [Compound E3-7] | >20 | >20 | >20 | >20
13 | CCCCCOc1ccc(-c2ccc(-c3ccc(C(=O)N[C@H]4CCCNC(=O)[C@@H]5[C@@H](O)[C@@H](C)CN5C(=O)[C@H](C(C)O)NC(=O)[C@H]([C@H](O)Cc5ccc(O)cc5)NC(=O)[C@@H]5C[C@@H](O)CN5C(=O)[C@H](C(C)C)NC4=O)cc3)cc2)cc1 (stereo partly drawn) [Compound E4-6] ({pTerphenylCO(4''-OnC5H11)}-[Orn]V[Hyp][hTyr(3R-OH)][Thr(3ξ)][Pro(3S-OH,4S-Me)]; lactam 1-C) | 1.25 | >20 | >20 | >20
14 | CCCCCOc1ccc(-c2ccc(-c3ccc(C(=O)N[C@H]4CCCNC(=O)[C@@H]5[C@@H](O)[C@@H](C)CN5C(=O)[C@H](C(C)O)NC(=O)[C@H]([C@H](O)Cc5ccc(O)cc5)NC(=O)[C@@H]5C[C@@H](O)CN5C(=O)[C@H](Cc5ccc(O)cc5)NC4=O)cc3)cc2)cc1 (stereo partly drawn) [Compound E5-7] ({pTerphenylCO(4''-OnC5H11)}-[Orn]Y[Hyp][hTyr(3R-OH)][Thr(3ξ)][Pro(3S-OH,4S-Me)]; lactam 1-C) | >20 | >20 | >20 | >20
15 | CCCCCOc1ccc(-c2ccc(-c3ccc(C(=O)N[C@H]4CNC(=N)NC(=O)[C@@H]5[C@@H](O)[C@@H](C)CN5C(=O)[C@H](C(C)O)NC(=O)[C@H]([C@H](O)Cc5ccc(O)cc5)NC(=O)[C@@H]5C[C@@H](O)CN5C(=O)[C@H](C(C)O)NC4=O)cc3)cc2)cc1 (some centres unmarked) [Compound E6-6] | 0.078 | >20 | >20 | >20
16 | CCCCCOc1ccc(-c2ccc(-c3ccc(C(=O)N[C@H]4CCNNC(=O)[C@@H]5[C@@H](O)[C@@H](C)CN5C(=O)[C@H](C(C)O)NC(=O)[C@H]([C@H](O)Cc5ccc(O)cc5)NC(=O)[C@@H]5C[C@@H](O)CN5C(=O)[C@H](C(C)O)NC4=O)cc3)cc2)cc1 (some centres unmarked) [E2-10(b)] | 0.01 | 0.156 | 0.156 | 0.156
17 | CCCCCOc1ccc(-c2ccc(-c3ccc(C(=O)N[C@H]4CCN(CC)NC(=O)[C@@H]5[C@@H](O)[C@@H](C)CN5C(=O)[C@H](C(C)O)NC(=O)[C@H]([C@H](O)Cc5ccc(O)cc5)NC(=O)[C@@H]5C[C@@H](O)CN5C(=O)[C@H](C(C)O)NC4=O)cc3)cc2)cc1 (some centres unmarked) [E2-11(b)] | 0.001 | 0.156 | 0.312 | 0.02
